PubChem BioAssay (NCI)
Values joined by “and” are separate entries in the source; they are usually repeats but may differ in a detail not shown here. Identical values can stand only once.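 Dose response: 5 concentrations. Exposure: 48 h. Format: 96-well plates. Endpoint: linear interpolation; highest concentration if not reached. Here, GI50 denotes the concentration required for 50% inhibition of growth. The concentration for full growth arrest is given as TGI.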

Key:
Test in all cases: NCI anticancer screen, dose series, 48 h
HCT-116 colon = tested on: HCT-116 colon
HOP-92 NSCLC = tested on: HOP-92 NSCLC
HT29 colon = tested on: HT29 colon
K-562 leukemia = tested on: K-562 leukemia
NCI-H522 lung = tested on: NCI-H522 lung
NCI/ADR-RES ovarian = tested on: NCI/ADR-RES ovarian
OVCAR-3 ovarian = tested on: OVCAR-3 ovarian
RXF 393 renal = tested on: RXF 393 renal
SK-OV-3 ovarian = tested on: SK-OV-3 ovarian
SNB-75 CNS = tested on: SNB-75 CNS

| Structure (SMILES) | GI50 (HCT-116 colon) | TGI (HCT-116 colon) | GI50 (HOP-92 NSCLC) | TGI (HOP-92 NSCLC) | GI50 (HT29 colon) | TGI (HT29 colon) | GI50 (K-562 leukemia) | TGI (K-562 leukemia) | GI50 (NCI-H522 lung) | TGI (NCI-H522 lung) | GI50 (NCI/ADR-RES ovarian) | TGI (NCI/ADR-RES ovarian) | GI50 (OVCAR-3 ovarian) | TGI (OVCAR-3 ovarian) | GI50 (RXF 393 renal) | TGI (RXF 393 renal) | GI50 (SK-OV-3 ovarian) | TGI (SK-OV-3 ovarian) | GI50 (SNB-75 CNS) | TGI (SNB-75 CNS) |
| --- | --- | --- | --- | --- | --- | --- | --- | --- | --- | --- | --- | --- | --- | --- | --- | --- | --- | --- | --- | --- |
| COc1ccc(S(=O)(=O)NC2=NCCN2C(=S)SN2CCn3c2nsc3=S)cc1OC | 19.2 µM | 40 µM | 23.2 µM | 48.6 µM | 25.7 µM | 94.4 µM | 27.4 µM | > 100 µM | 13 µM | 38.8 µM | 61.8 µM | > 100 µM | 21 µM | 47 µM | 3.1 µM | 13 µM | 21.9 µM | 55.2 µM | 12.7 µM | 46.4 µM |
| CCCCCCCCCCCCOC1C(CNCC2OC3OC(C)(C)OC3C2NC(=O)Nc2ccc(C(F)(F)F)cc2)OC2OC(C)(C)OC21 (configuration not stated) | 2.46 µM | 4.7 µM | 7.4 µM | 14.4 µM | 3.14 µM | 7.07 µM | 0.0327 µM | 2.62 µM | 3.96 µM | 9.21 µM | 8.44 µM | 17.1 µM | 4.59 µM | 13.3 µM | 3.37 µM | 8.99 µM | 9.06 µM | 17.2 µM | 6.04 µM | 13.4 µM |
| CCC(C(=O)c1cccs1)C(O)(C(F)(F)F)C(F)(F)F (configuration not stated) |  | > 100 µM |  | > 100 µM |  | > 100 µM |  | > 100 µM |  | > 100 µM |  | > 100 µM |  | > 100 µM |  | > 100 µM |  | > 100 µM |  | > 100 µM |
| COc1ccc2c(O)c(/C=C3\N=Nc4ncccc43)oc2c1C[C@H]1CCNC[C@H]1F | 0.131 µM | 2.15 µM | 2.39 µM | 11.3 µM | 0.411 µM | 6.93 µM | 0.436 µM | 27.4 µM | 0.206 µM | 2.23 µM | 3.37 µM | 28.9 µM | 0.431 µM | 11.4 µM | 0.183 µM | 0.55 µM | 1.57 µM | 9.05 µM | 0.185 µM | 1.54 µM |
| c1ccc(CCCNc2nnnc3ccccc23)cc1 |  | > 100 µM |  | > 100 µM |  | > 100 µM |  | > 100 µM |  | > 100 µM |  | > 100 µM |  | > 100 µM |  | > 100 µM |  | > 100 µM |  | > 100 µM |
| Cc1c2cnccc2c(C)c2c1c1cc(C(=O)O)ccc1n2C | 0.373 µM | > 100 µM | 0.913 µM | 5.95 µM | 0.856 µM | 6.15 µM | 1.28 µM | > 100 µM | 0.943 µM | 3.9 µM | 0.764 µM | 5.5 µM | 1.35 µM | 5.68 µM | 0.666 µM | 2.33 µM | 0.905 µM | 7.63 µM | 1.1 µM | 2.53 µM |
| O=C1c2ccccc2C(=O)c2c(NC(=O)C(Cl)CCl)cccc21 (configuration not stated) |  | 28.4 µM |  | 9.82 µM |  | 10.5 µM |  | 0.395 µM |  | 7.13 µM |  | > 77.6 µM |  | 23.1 µM |  | 16.2 µM |  | 39.1 µM |  | 32.4 µM |
| NC(=O)c1ccc2nc(-c3ccc(C4(N)CCC4)cc3)c(-c3ccccc3)n2n1 | 10.2 µM | 22.6 µM | 0.815 µM | 14.1 µM | 1.5 µM | 25.7 µM | 13.7 µM | 36.9 µM | 16.7 µM | 33.9 µM | 15.1 µM | 41.2 µM | 0.817 µM | 22 µM | 0.335 µM | 4.13 µM | 0.243 µM | 12.7 µM | 0.0922 µM | 5.21 µM |
| CN(C)CCN1C(=O)c2cccc3c(N)ccc(c23)C1=O | 9.49 µM | > 25 µM | 19.4 µM | > 25 µM | 9.06 µM | > 25 µM | 6.76 µM | 20.4 µM | 7.12 µM | > 25 µM | 16.9 µM | > 25 µM | 15.9 µM | > 25 µM | 7.91 µM | 24.8 µM | 15.9 µM | > 25 µM | > 25 µM | > 25 µM |
| Nc1ccc(-c2ccc(Nc3cc(S(=O)(=O)O)c(N)c4c3C(=O)c3ccccc3C4=O)cc2)c(S(=O)(=O)O)c1 |  | > 100 µM |  | > 100 µM |  | > 100 µM |  | > 100 µM |  | > 100 µM |  | > 100 µM |  | > 100 µM |  | > 100 µM |  | > 100 µM |  | > 100 µM |
| CC(N)(Cc1c[nH]c2ccccc12)C(=O)O (configuration not stated) | > 2500 µM | > 2500 µM | 1800 µM | > 2500 µM | > 2500 µM | > 2500 µM | > 2500 µM | > 2500 µM | > 2500 µM | > 2500 µM | > 2500 µM | > 2500 µM | > 2500 µM | > 2500 µM | > 2500 µM | > 2500 µM | > 2500 µM | > 2500 µM | > 2500 µM | > 2500 µM |
| COc1cc(/C=C/C(=O)NC[C@]2(O)CCC3C4CCc5cc(O)ccc5C4CCC32C)ccc1O (some centres not stated) | 7.97 µM | 49.3 µM | 21.8 µM | > 100 µM | 3.68 µM | 28.6 µM | 3.74 µM | 28.4 µM | 6.89 µM | 51.7 µM | 9.89 µM | 54.3 µM | 10.3 µM | > 100 µM | 6.42 µM | 85.5 µM | 82.6 µM | > 100 µM | 42.5 µM | > 100 µM |
| COc1ccc2[nH]c3c(C)c4cc[n+](C)cc4c(C)c3c2c1 | 0.578 µM and 1.14 µM |  | 0.239 µM and 1.55 µM |  | 2.52 µM and 1.97 µM | 60.2 µM [middle of 4 runs] | 2 µM [middle of 4 runs] |  | 0.167 µM and 0.0825 µM |  | 7.91 µM and 8.4 µM |  | 0.246 µM |  | 1.54 µM | 16.5 µM [middle of 4 runs] | 4.31 µM and 1.57 µM |  | 0.158 µM and 0.324 µM | 801 nM [middle of 4 runs] |
| CN(C)CCNC(=O)c1cccc2cc([N+](=O)[O-])ccc12 | 0.513 µM and 0.0724 µM |  |  | 1.34 µM | 0.681 µM and 0.189 µM | 4.96 µM and 1.07 µM | 0.579 µM and 0.123 µM |  |  | 2.88 µM |  | 5.27 µM | 2.36 µM and 0.332 µM | 11.7 µM and 2.26 µM |  | 0.471 µM | 3.48 µM and 0.535 µM | 33.1 µM and 14.5 µM | 1.37 µM and 0.38 µM | 5.77 µM and 1.08 µM |
